Assay results reported in patent US7915285B2, “Method for treating drug and behavioral addictions” (priority 2005, dated 2011).
Read-outs that look alike come from different tables or passages of the source.

What was measured:
[1] = system: microglial activation marker CD11b; experiment: Brain immunohistochemistry and densitometry of microglial activation marker (Example 4); assay type: in vivo, rat; details: chronic morphine administration, FIG. 6
Protocol: Immunoreactivity for OX-42 (antibody that recognizes complement type 3 receptors, e.g., CD11b) and/or glial fibrillary acidic protein (GFAP), microglial and astrocyte activation markers, respectively, were assessed. Sections (20 μm) were treated with 0.3% H2O2 in Tris-buffered saline (TBS) for 20 minutes at room temperature to suppress endogenous peroxidase activity. Sections were then incubated overnight at 4° C. in monoclonal mouse anti-rat OX-42 (1:100; Pharmingen, San Diego, Calif.) or monoclonal mouse anti-rat GFAP antibody (1:200; Chemicon, Temecula, Calif.) in TBS with 2% normal goat serum and 0.5% Triton-X-100. Subsequently, sections were incubated with the appropriate secondary biotinylated antibodies (1:400; Jackson ImmunoResearch, West Grove, Pa.) for 2 hours at room temperature, incubated in avidin -biotin complex solution (ABC; 1:200; Vector Laboratories, Burlingame, Calif.) for 2 hours at room temperature, followed by reaction with 0.5 mg/ml 3,3′-diaminobenzidine tetrahydrochloride (DAB; Sigma). Finally, sections were dried, dehydrated, and coverslipped with Permount. Staining was evaluated by light microscopy. Densitometry of immunohistochemical staining was subsequently evaluated using computer software (NIH image).

interleukin-1 mRNA = experiment: mRNA analysis of brain nuclei by real-time PCR (Example 4); assay type: in vivo, rat; details: morphine; dorsal and ventral periaqueductal grey region, FIG. 8
Protocol: Following scoring of withdrawal behaviors animals received an intraperitoneal injection of 0.8 ml of 50 mg/ml sodium pentobarbital, and once anesthetized, animals were transcardially perfused. Half of each treatment group were perfused with saline and half with 4% paraformaldehyde. Spinal cord and brains were collected (saline perfusion for protein and mRNA quantification and paraformaldehyde perfusion for immunohistochemistry). Samples collected from saline perfused animals were flash frozen in liquid nitrogen and stored at −80° C. Paraformaldehyde perfused samples were stored in 4% paraformaldehyde for 48 hours and then transferred to 30% sucrose (0.1% azide) until tissue sectioning.
Amplification of cDNA was performed using the [sequence] […] Linearity and efficiency of PCR amplification were assessed using standard curves generated by increasing amounts of cDNA. SYBR green l fluorescence (PCR product formation) was monitored in real time using the MYIQ single color real-time PCR detection system (Bio-Rad). […] Linearity and efficiency of PCR amplification were assessed using standard curves generated by increasing amounts of cDNA. SYBR green 1 fluorescence (PCR product formation) was monitored in real time using the MYIQ single color real-time PCR detection system (Bio-Rad). […]

[2] = system: dopamine release in the nucleus accumbens; experiment: In vivo microdialysis of nucleus accumbens dopamine (Example 3); parameters: species or system rat
Protocol: (§1) Dopamine release in the nucleus accumbens is thought to mediate the “reward” associated with drugs of abuse. […] After 3 baseline samples (20 minute inter-sample interval), morphine was administered to all rats. Dialysis samples were collected at 20 minute intervals for 180 minutes. To test behavioral withdrawal and reversal of morphine-induced dopamine, all rats were administered the opioid antagonist naloxone after the 60 minute sample time was completed.

[3] = Pharmacokinetics and tissue distribution of ibudilast in rat; assay type: in vivo
Protocol: Ibudilast pharmacokinetics and distribution into plasma, muscle, brain, and spinal cord were assessed as follows.
(§2) Drug stability and concentration were validated by HPLC/MS/MS.
(§3) Pathogen-free adult male Sprague-Dawley rats (280-350 g; Harlan Labs) were used in all experiments. Rats were housed in temperature (23+/−3° C.) and light (12:12 light: dark; lights on at 0700 hr) controlled rooms with standard rodent chow and water available ad libitum. Behavioral testing was performed during the light cycle.
Calibration standards in plasma were prepared by diluting each 0.5 mg/ml stock 1 in 100 into rat plasma to 5000 ng/ml (5 μl+495 μl), and then diluted further to 2.29 ng/ml by 3-fold serial dilution with plasma. Standards were used as low, mid and high QC samples, respectively.
Calibration standards, QC and plasma study samples were prepared for HPLC injection by precipitating 25 μl of plasma with three volumes (75 μl) of ice cold acetonitrile containing 50 ng/ml diphenhydramine and 100 ng/ml dextromethorphan as the internal standards. Tissue study samples were prepared for HPLC injection by adding 1 μl of water per mg of tissue plus three volumes (relative to water) of ice cold acetonitrile containing 50 ng/ml diphenhydramine and 100 ng/ml dextromethorphan as the internal standards, then homogenizing with an electric homogenizer.

[4] = Previous range-finding tolerability studies, intraperitoneal; assay type: in vivo; details: twice a day (bid) for multiple days
[5] = system: naloxone-precipitated morphine withdrawal syndrome; experiment: Rat model of naloxone-precipitated morphine withdrawal, total withdrawal score (Example 2); assay type: in vivo
Protocol: as §2
as §3, with “(23[…]3°” for “(23+/−3°”, “cycle. Approval of the Institutional Animal Care and Use Committee at University of Colorado was obtained for all procedures.” for “cycle.”
The schedule for morphine treatment (via subcutaneous injections) was as follows: Day 1: 5 mg/kg at 1000 hr, 5 mg/kg at 1300 hr, 5 mg/kg at 1700 hr; Day 2: 5 mg/kg at 1000 hr, 12.5 mg/kg at 1700 hr; Day 3: 15 mg/kg at 1000 hr; Day 4: 17.5 mg/kg at 1000 hr; Day 5: 5 mg/kg at 1000 hr, 17.5 mg/kg at 1200 hr.
(§4) The withdrawal signs measured were: (1) abnormal posturing (an animal presses his abdomen and lower jaw against the floor of the cage); (2) exploration (an animal circles around the cage, thrusting its head in several directions and examining its surroundings); (3) jumping; (4) cleaning (grooming); (5) rearing (an animal stands on its hindpaws with the forepaws off the ground).
Withdrawal scores were measured by blinded observers in 10 minute blocks for 60 minutes immediately after naloxone precipitated withdrawal was initiated. […]

[6] = system: naloxone-induced behavioral withdrawal signs; experiment: Naloxone-induced withdrawal behavior during microdialysis (Example 3); assay type: in vivo, rat; details: 7.5 mg/kg b.i.d. with morphine, vs PEG-saline vehicle and morphine, FIG. 4
Protocol: as §1

[7] = assay type: in vivo, rat; details: normalized to weight at start of morphine
[8] = system: naloxone precipitated withdrawal behaviors; experiment: Naloxone precipitated withdrawal behaviors (Example 4); assay type: in vivo, rat; details: for naloxone precipitated withdrawal behaviors: 60 minute observation period, FIG. 5
Protocol: as §4
Withdrawal scores were measured by blinded observers in 10 minute blocks for 60 minutes immediately after naloxone precipitated withdrawal was initiated. The observations were pooled from 1-10 minutes, 11-20 minutes, 21-30 minutes, 31-40 minutes, 41-50 minutes, 51-60 minutes for each individual rat after naloxone administration, giving six time points. The average score (for each time point) for all animals within an experimental group was reported as the “total withdrawal score” in FIGS. 2A-2D.

[9] = Spontaneous opioid withdrawal induced weight loss (Example 5); assay type: in vivo, rat; details: FIG. 9
Protocol: Pathogen-free adult male Sprague-Dawley rats were used in all experiments. Rats (350-375 g at the time of arrival; Harlan Labs, Madison, Wis.) were housed in temperature (23±3° C.) and light (12:12 light:dark; lights on at 0700 hours) controlled rooms with standard rodent chow and water available ad libitum. All procedures were approved by the Institutional Animal Care and Use Committee at the University of Colorado at Boulder. Upon arrival male Sprague Dawley rats (300-400g) were housed individually and allowed to acclimatize to the animal colony telemetry room for one week. 5×90 minute sessions of handling by investigators were performed during the following week. Rats were anesthetized with isoflurane, and emitters for measuring core body temperature ([…], Sun River, Oreg.) were implanted in the peritoneal cavity. Gross motor movement was assessed by telemetry using the same emitters used for recording core body temperature. The emitter had to move for activity to be counted; thus, stationary movements such as grooming were not counted. Activity counts and core body temperature were measured every minute and movement averaged over 120 minutes was calculated (thereby smoothing the data). […] Body weights were recorded prior to each dosing session to allow for accurate dose calculations and to track the opioid induced weight loss (also occurred on days when no dosing was conducted).

[10] = system: nucleus accumbens dopamine; experiment: Nucleus accumbens dopamine microdialysis after 5 days of morphine and ibudilast (Example 6); assay type: in vivo, rat; details: for nucleus accumbens dopamine levels: 7.5 mg/kg
Protocol: Pathogen-free adult male Sprague-Dawley rats were used in all experiments. Rats (300-325 g at the time of arrival; Harlan Labs, Madison, Wis.) were housed in temperature (23±3° C.) and light (12:12 light:dark; lights on at 0700 hours) controlled rooms with standard rodent chow and water available ad libitum. All procedures were approved by the Institutional Animal Care and Use Committee at the University of Colorado at Boulder. Upon arrival male Sprague Dawley rats (300-400 g) were housed in pairs and allowed to acclimatize to the animal colony for one week. 5×90 minute sessions of handling by investigators and animal acclimatization to the microdialysis environment were performed during the following week.
Microdialysis guide cannula implantation was performed under halothane anaesthesia. CMA 12 guide cannulae (CMA Microdialysis) were aimed at either the right or left nucleus accumbens (AP=+1.7, LM=±0.8, DV=−6.0) in a counterbalanced fashion. Coordinates were from bregma using the atlas of Paxinos and Watson (1998). The guide cannulae and a tether screw (CMA Microdialysis) were anchored to the skull with three jeweler's screws and dental cement. Rats were individually housed after surgery and allowed to recover for one week.
Animals then began a 7 day dosing regimen (groups of 6 animals at a time, n=10 per treatment group). […] Body weights were recorded prior to each dosing session to allow for accurate dose calculations and to track the opioid induced weight loss.
Microdialysis probes (CMA 12, MW cut-off 20,000 Da, 2 mm active membrane) were inserted into the guide cannulae and rats were placed in separate Plexiglas infusion bowls with food and water available ad libitum. […] Dialysates were analyzed by HPLC within 2 weeks of collection.
Dopamine in the dialysates was determined using an ESA 5600A COULARRAY detector with an ESA 5014B analytical cell and an ESA 5020 guard cell connected to an ESA HR80 column (C18, […], 80×3 mm) which was maintained at 30° C. […] Quantitative comparisons were made with external standards (Sigma-Aldrich, St Louis, Mo.) that were run each day. […]

activated microglia = details: dose-dependent; cited from earlier work
[11] = system: nucleotide phosphodiesterase (PDE); details: non-selective PDE inhibitor; cited from earlier work
[12] = administered systemically; cited from earlier work

CN1CC[C@]23c4c5ccc(O)c4O[C@H]2[C@@H](O)C=C[C@H]3[C@H]1C5 [morphine]
CD11b staining after chronic administration [1]: visible upregulation of the microglia activation marker CD11b
interleukin-1 mRNA (interleukin-1 mRNA): dramatic increase in interleukin-1 mRNA in the dorsal, but not the ventral periaqueductal grey region

C=CCN1CC[C@]23c4c5ccc(O)c4O[C@H]2C(=O)CC[C@@]3(O)[C@H]1C5 [naloxone]
morphine-induced dopamine release after opioid antagonist ([2]; naloxone given after the 60 minute sample): reversed the morphine-induced dopamine release

CC(C)C(=O)c1c(C(C)C)nn2ccccc12 [ibudilast, 2-methyl-1-(2-(1-methylethyl)pyrazolo(1,5-a)pyridin-3-yl)1-propanone]
plasma concentration profile ([3]; i.p. 5 mg/kg): declined from Cmax in a biphasic manner
tissue distribution ([3]; i.p. 5 mg/kg, muscle, brain, spinal cord): well distributed to peripheral (e.g. muscle) and central (e.g. brain and spinal cord) tissues
Cmax ([3]; male, Sprague-Dawley, plasma and CNS tissues (brain, spinal cord), ip, i.p. ~5 mg/kg, in 15% ethanol/saline, read-out: maximal concentration (Cmax) in plasma and CNS tissues): ~1000 ng/mL
half-life ([3]; male, Sprague-Dawley, plasma, muscle, brain, spinal cord (all tissue compartments), ip, i.p. 5 mg/kg, all tissue compartments, read-out: elimination half-life): 1.67 to 2.32 h
well-tolerated dose level [4]: up to 15 mg/kg
total withdrawal score ([5]; high dose 7.5 mg/kg i.p. bid, FIG. 2B, 2D): remarkably attenuated behavioral signs of withdrawal
total withdrawal score ([5]; low dose 2.5 mg/kg i.p. bid, vs saline controls, FIG. 2C): no effect compared to saline controls
dopamine release into the nucleus accumbens in response to morphine ([2]; 7.5 mg/kg b.i.d. co-administered with morphine across 5 days, FIG. 3): suppressed release of dopamine into the nucleus accumbens in response to morphine
basal levels of dopamine ([2]; 7.5 mg/kg b.i.d., baseline samples): did not decrease basal levels of dopamine
naloxone-induced behavioral withdrawal signs [6]: suppressed naloxone-induced behavioral withdrawal signs
morphine induced weight loss on day 7 ([7]; 2.5 mg/kg ibudilast): 16.6 ± 5.7 g
morphine induced weight loss on day 7 ([7]; 7.5 mg/kg ibudilast): 13.3 ± 7.1 g
naloxone precipitated withdrawal behaviors ([8]; 2.5 mg/kg): dramatic reduction of naloxone precipitated withdrawal behaviors
naloxone precipitated withdrawal behaviors ([8]; 7.5 mg/kg): dramatic reduction of naloxone precipitated withdrawal behaviors
individual withdrawal behaviors ([8]; on an individual behavior basis): reductions in all behaviors except for rearing, exploration and wet dog shakes
spontaneous opioid withdrawal induced weight loss ([9]; higher dose (7.5 mg/kg twice daily)): substantially attenuated weight loss
spontaneous opioid withdrawal induced weight loss ([9]; lower dose (2.5 mg/kg twice daily)): only a trend towards improved weight change
nucleus accumbens dopamine levels ([10]; during naloxone precipitated opioid withdrawal, FIG. 10): reduced nucleus accumbens dopamine levels
nucleus accumbens dopamine levels ([10]; following morphine administration, spontaneous opioid withdrawal, FIG. 11): also reduced nucleus accumbens dopamine levels
morphine induced nucleus accumbens dopamine increases ([10]; morphine-dependent animals, during morphine administration and withdrawal, FIGS. 10 and 11): dramatically reduced morphine induced nucleus accumbens dopamine increases
production of inhibitory cytokine and neurotrophic factors (activated microglia): enhanced the production of the inhibitory cytokine, IL-10, and additional neurotrophic factors
production of pro-inflammatory mediators (activated microglia): suppressed the production of nitric oxide (NO), reactive oxygen species, interleukin (IL)-1β, IL-6, and tumor necrosis factor (TNF)
PDE inhibition profile [11]: most active against PDE-3, PDE-4, PDE-10, and PDE-11
blood-brain barrier passage [12]: crosses the blood-brain barrier when administered systemically
